Test results published in ChEMBL document CHEMBL4819051, “Synthesis and antifungal activity of new hybrids thiazolo[4,5-d]pyrimidines with (1H-1,2,4)triazole” (Bioorg Med Chem Lett, 2021).
Converted amounts (≈) assume the structure as drawn.

Columns and labels:
Pichia kudriavzevii [1] = assay: Antifungal activity against Candida krusei 432M assessed as reduction in fungal growth incubated for 48 hrs by CLSI based serial microbroth dilution method; type: functional
Nakaseomyces glabratus [2] = assay: Antifungal activity against Candida glabrata 61L assessed as reduction in fungal growth incubated for 24 hrs by CLSI based serial microbroth dilution method; type: functional
Aspergillus niger [3] = assay: Antifungal activity against Aspergillus niger 37a assessed as reduction in fungal growth incubated for 24 hrs by CLSI based serial microbroth dilution method; type: functional
Candida albicans [4] = assay: Antifungal activity against Candida albicans 8R assessed as reduction in fungal growth incubated for 24 hrs by CLSI based serial microbroth dilution method; type: functional
Candida albicans [5] = assay: Antifungal activity against Candida albicans 604M assessed as reduction in fungal growth incubated for 48 hrs by CLSI based serial microbroth dilution method; type: functional
Candida parapsilosis [6] = assay: Antifungal activity against Candida parapsilosis ATCC 22019 assessed as reduction in fungal growth incubated for 48 hrs by CLSI based serial microbroth dilution method; type: functional; settings: Lodderomyces parapsilosis
Candida albicans [7] = assay: Antifungal activity against Candida albicans ATCC 24433 assessed as reduction in fungal growth incubated for 24 hrs by CLSI based serial microbroth dilution method; type: functional
Candida albicans [8] = assay: Antifungal activity against Candida albicans 604M assessed as reduction in fungal growth incubated for 24 hrs by CLSI based serial microbroth dilution method; type: functional
Cyberlindnera jadinii [9] = assay: Antifungal activity against Candida utilis 84 assessed as reduction in fungal growth incubated for 48 hrs by CLSI based serial microbroth dilution method; type: functional; settings: Williopsis jadinii
Nakaseomyces glabratus [10] = assay: Antifungal activity against Candida glabrata 61L assessed as reduction in fungal growth incubated for 48 hrs by CLSI based serial microbroth dilution method; type: functional
Microsporum canis [11] = assay: Antifungal activity against Microsporum canis B-200 assessed as reduction in fungal growth incubated for 48 hrs by CLSI based serial microbroth dilution method; type: functional
Candida albicans [12] = assay: Antifungal activity against Candida albicans CBS 8837 assessed as reduction in fungal growth incubated for 48 hrs by CLSI based serial microbroth dilution method; type: functional
Microsporum canis [13] = assay: Antifungal activity against Microsporum canis B-200 assessed as reduction in fungal growth incubated for 24 hrs by CLSI based serial microbroth dilution method; type: functional
Candida parapsilosis [14] = assay: Antifungal activity against Candida parapsilosis ATCC 22019 assessed as reduction in fungal growth incubated for 24 hrs by CLSI based serial microbroth dilution method; type: functional; settings: Lodderomyces parapsilosis
Cryptococcus neoformans [15] = assay: Antifungal activity against Cryptococcus neoformans assessed as reduction in fungal growth incubated for 24 hrs by CLSI based serial microbroth dilution method; type: functional
Candida tropicalis [16] = assay: Antifungal activity against Candida tropicalis 3019 assessed as reduction in fungal growth incubated for 24 hrs by CLSI based serial microbroth dilution method; type: functional
Cryptococcus neoformans [17] = assay: Antifungal activity against Cryptococcus neoformans assessed as reduction in fungal growth incubated for 48 hrs by CLSI based serial microbroth dilution method; type: functional
Aspergillus niger [18] = assay: Antifungal activity against Aspergillus niger 37a assessed as reduction in fungal growth incubated for 48 hrs by CLSI based serial microbroth dilution method; type: functional
Candida albicans [19] = assay: Antifungal activity against Candida albicans ATCC 24433 assessed as reduction in fungal growth incubated for 48 hrs by CLSI based serial microbroth dilution method; type: functional
Candida albicans [20] = assay: Antifungal activity against Candida albicans CBS 8837 assessed as reduction in fungal growth incubated for 24 hrs by CLSI based serial microbroth dilution method; type: functional
Candida albicans [21] = assay: Antifungal activity against Candida albicans 8R assessed as reduction in fungal growth incubated for 48 hrs by CLSI based serial microbroth dilution method; type: functional
Trichophyton rubrum [22] = assay: Antifungal activity against Trichophyton rubrum 2002 assessed as reduction in fungal growth incubated for 24 hrs by CLSI based serial microbroth dilution method; type: functional
Cyberlindnera jadinii [23] = assay: Antifungal activity against Candida utilis 84 assessed as reduction in fungal growth incubated for 24 hrs by CLSI based serial microbroth dilution method; type: functional; settings: Williopsis jadinii
Trichophyton rubrum [24] = assay: Antifungal activity against Trichophyton rubrum 2002 assessed as reduction in fungal growth incubated for 48 hrs by CLSI based serial microbroth dilution method; type: functional
Candida tropicalis [25] = assay: Antifungal activity against Candida tropicalis 3019 assessed as reduction in fungal growth incubated for 48 hrs by CLSI based serial microbroth dilution method; type: functional
Pichia kudriavzevii [26] = assay: Antifungal activity against Candida krusei 432M assessed as reduction in fungal growth incubated for 24 hrs by CLSI based serial microbroth dilution method; type: functional
[27] = 1-octanol/aqueous buffer distribution coefficient, logP of the compound at pH 7.4; type: physicochemical

| SMILES | MIC (Pichia kudriavzevii [1]) [µg/mL] | MIC (Nakaseomyces glabratus [2]) [µg/mL] | MIC (Aspergillus niger [3]) [µg/mL] | MIC (Candida albicans [4]) [µg/mL] | MIC (Candida albicans [5]) [µg/mL] | MIC (Candida parapsilosis [6]) [µg/mL] | MIC (Candida albicans [7]) [µg/mL] | MIC (Candida albicans [8]) [µg/mL] | MIC (Cyberlindnera jadinii [9]) [µg/mL] | MIC (Nakaseomyces glabratus [10]) [µg/mL] | MIC (Microsporum canis [11]) [µg/mL] | MIC (Candida albicans [12]) [µg/mL] | MIC (Microsporum canis [13]) [µg/mL] | MIC (Candida parapsilosis [14]) [µg/mL] | MIC (Cryptococcus neoformans [15]) [µg/mL] | MIC (Candida tropicalis [16]) [µg/mL] | MIC (Cryptococcus neoformans [17]) [µg/mL] | MIC (Aspergillus niger [18]) [µg/mL] | MIC (Candida albicans [19]) [µg/mL] | MIC (Candida albicans [20]) [µg/mL] | other results |
| --- | --- | --- | --- | --- | --- | --- | --- | --- | --- | --- | --- | --- | --- | --- | --- | --- | --- | --- | --- | --- | --- |
| O=c1c2sc(=S)n(-c3ccc(F)cc3)c2ncn1CCCN1CCN(CC(O)(Cn2cncn2)c2ccc(F)cc2F)CC1 (stereo not drawn) | 16 (≈ 24.9 µM) | 4 (≈ 6.22 µM) | 16 (≈ 24.9 µM) | 32 (≈ 49.8 µM) | 32 (≈ 49.8 µM) | 0.125 (≈ 0.194 µM) | 8 (≈ 12.4 µM) | 32 (≈ 49.8 µM) | 1 (≈ 1.56 µM) | 32 (≈ 49.8 µM) | 4 (≈ 6.22 µM) | 32 (≈ 49.8 µM) | 4 (≈ 6.22 µM) | 0.06 (≈ 0.0934 µM) | 16 (≈ 24.9 µM) | 4 (≈ 6.22 µM) | 16 (≈ 24.9 µM) | 16 (≈ 24.9 µM) | 8 (≈ 12.4 µM) | 16 (≈ 24.9 µM) | MIC (Candida albicans [21]): 32 µg/mL (≈ 49.8 µM); MIC (Trichophyton rubrum [22]): 32 µg/mL (≈ 49.8 µM); MIC (Cyberlindnera jadinii [23]): 1 µg/mL (≈ 1.56 µM); MIC (Trichophyton rubrum [24]): 32 µg/mL (≈ 49.8 µM); MIC (Candida tropicalis [25]): 4 µg/mL (≈ 6.22 µM); MIC (Pichia kudriavzevii [26]): 8 µg/mL (≈ 12.4 µM) |
| Cc1ccc(-n2c(=S)sc3c(=O)n(CCN4CCN(CC(O)(Cn5cncn5)c5ccc(F)cc5F)CC4)cnc32)cc1 (stereo not drawn) | 32 (≈ 51.2 µM) | 4 (≈ 6.4 µM) | 32 (≈ 51.2 µM) | 32 (≈ 51.2 µM) | 32 (≈ 51.2 µM) | 0.5 (≈ 0.8 µM) | 8 (≈ 12.8 µM) | 16 (≈ 25.6 µM) | 4 (≈ 6.4 µM) | 32 (≈ 51.2 µM) | 32 (≈ 51.2 µM) | 32 (≈ 51.2 µM) | 32 (≈ 51.2 µM) | 0.5 (≈ 0.8 µM) | 32 (≈ 51.2 µM) | 4 (≈ 6.4 µM) | 32 (≈ 51.2 µM) | 32 (≈ 51.2 µM) | 16 (≈ 25.6 µM) | 16 (≈ 25.6 µM) | logD [27]: 2.9; MIC (Candida albicans [21]): 32 µg/mL (≈ 51.2 µM); MIC (Trichophyton rubrum [22]): 32 µg/mL (≈ 51.2 µM); MIC (Cyberlindnera jadinii [23]): 2 µg/mL (≈ 3.2 µM); MIC (Trichophyton rubrum [24]): 32 µg/mL (≈ 51.2 µM); MIC (Candida tropicalis [25]): 8 µg/mL (≈ 12.8 µM); MIC (Pichia kudriavzevii [26]): 16 µg/mL (≈ 25.6 µM) |
| COc1ccccc1-n1c(=S)sc2c(=O)n(CC(=O)NCC(O)(Cn3cncn3)c3ccc(F)cc3F)cnc21 (stereo not drawn) |  |  |  |  |  |  |  |  |  |  |  |  |  |  |  |  |  |  |  |  | logD [27]: 0.8 |
| COc1ccccc1-n1c(=S)sc2c(=O)n(CC(O)(Cn3cncn3)c3ccc(F)cc3F)cnc21 (stereo not drawn) |  |  |  |  |  |  |  |  |  |  |  |  |  |  |  |  |  |  |  |  | logD [27]: 1.19 |
| O=c1c2sc(=S)n(-c3ccc(F)cc3)c2ncn1CCN1CCN(CC(O)(Cn2cncn2)c2ccc(F)cc2F)CC1 (stereo not drawn) | 32 (≈ 50.9 µM) | 32 (≈ 50.9 µM) | 32 (≈ 50.9 µM) | 32 (≈ 50.9 µM) | 32 (≈ 50.9 µM) | 1 (≈ 1.59 µM) | 8 (≈ 12.7 µM) | 32 (≈ 50.9 µM) | 32 (≈ 50.9 µM) | 32 (≈ 50.9 µM) | 32 (≈ 50.9 µM) | 32 (≈ 50.9 µM) | 32 (≈ 50.9 µM) | 0.5 (≈ 0.795 µM) | 32 (≈ 50.9 µM) | 32 (≈ 50.9 µM) | 32 (≈ 50.9 µM) | 32 (≈ 50.9 µM) | 8 (≈ 12.7 µM) | 32 (≈ 50.9 µM) | MIC (Candida albicans [21]): 32 µg/mL (≈ 50.9 µM); MIC (Trichophyton rubrum [22]): 32 µg/mL (≈ 50.9 µM); MIC (Cyberlindnera jadinii [23]): 32 µg/mL (≈ 50.9 µM); MIC (Trichophyton rubrum [24]): 32 µg/mL (≈ 50.9 µM); MIC (Candida tropicalis [25]): 32 µg/mL (≈ 50.9 µM); MIC (Pichia kudriavzevii [26]): 32 µg/mL (≈ 50.9 µM) |
| COc1ccccc1-n1c(=S)sc2c(=O)n(CC(O)CN3CCN(CC(O)(Cn4cncn4)c4ccc(F)cc4F)CC3)cnc21 (stereo not drawn) |  |  |  |  |  |  |  |  |  |  |  |  |  |  |  |  |  |  |  |  | logD [27]: 2.91 |
| OC(Cn1cncn1)(Cn1cncn1)c1ccc(F)cc1F [FLUCONAZOLE] | 64 (≈ 209 µM) | 8 (≈ 26.1 µM) | 64 (≈ 209 µM) | 128 (≈ 418 µM) | 64 (≈ 209 µM) | 4 (≈ 13.1 µM) | 4 (≈ 13.1 µM) | 64 (≈ 209 µM) | 2 (≈ 6.53 µM) | 32 (≈ 104 µM) | 32 (≈ 104 µM) | 128 (≈ 418 µM) | 32 (≈ 104 µM) | 2 (≈ 6.53 µM) | 16 (≈ 52.2 µM) | 1 (≈ 3.27 µM) | 16 (≈ 52.2 µM) | 64 (≈ 209 µM) | 4 (≈ 13.1 µM) | 128 (≈ 418 µM) | MIC (Candida albicans [21]): 128 µg/mL (≈ 418 µM); MIC (Trichophyton rubrum [22]): 64 µg/mL (≈ 209 µM); MIC (Cyberlindnera jadinii [23]): 2 µg/mL (≈ 6.53 µM); MIC (Trichophyton rubrum [24]): 128 µg/mL (≈ 418 µM); MIC (Candida tropicalis [25]): 2 µg/mL (≈ 6.53 µM); MIC (Pichia kudriavzevii [26]): 32 µg/mL (≈ 104 µM) |
